# Measurements published in US20190358264A1, “METHODS OF TREATING DISEASES ASSOCIATED WITH ILC2 CELLS” (Limm Therapeutics, SA, priority 2016, published 2019).
# Tested on: intestinal ILC2s
# Experiment: Ki67 expression in intestinal ILC2s after in vitro stimulation with NmU23
# Assay type: cell-based, mouse
# Details: NmU23 100 ng/mL overnight
# Protocol: FIGS. 10a-10d: FIG. 10a, Ki67 expression in intestinal ILC2s after an overnight in vitro stimulation with NmU23 alone (100 ng/mL, Phoenix Pharmaceutical) or NmU23 together with the survival cytokines Interleukin (IL)-2 and/or IL-7 (10 ng/mL). FIG. 10b, Ki67 expression in intestine ILC2 after in vivo administration of NmU23 (4 g/day during 2 days). n=5. FIG. 10c, ILC2-derived type 2 cytokines (IL-5, IL-13 and Amphiregulin (Areg)) in sorted intestine ILC2 after an overnight stimulation with NmU23, mouse recombinant IL-25 or IL-33 (R&D) (10, 50 and 100 ng/mL). Negative control: unstimulated ILC2, Positive control: ILC2 activated with phorbol 12-myristate 13-acetate (PMA, 50 ng/ml) plus ionomycin (500 ng/ml). n=3. FIG. 10d, Dot plots representative of the cytokine production with increasing dose of NmU23, rIL-25 and rIL-33. *P<0.05; **P<0.01; ***P<0.001; ****P<0.0001; ns not significant.
# For in vitro experiments, purified lung and small intestine lamina propria ILC2s were FBS starved for 2 hours prior to stimulation and cultured in complete RPMI (supplemented with 10% foetal bovine serum (FBS), 1% hepes, sodium pyruvate, glutamine, streptomycin and penicillin) at 37° C. […] For in vivo experiments, B6 mice were injected intraperitoneal with NmU23 peptide (2 g/day) during Nippostrongylus brasiliensis infection or with a single dose of NmU23 (20 μg) and analyzed after 8 hours. […]
substance,measurement,value
"recombinant mouse Neuromedin U 23 peptide (FKAEYQSPSVGQSKGYFLFRPRN; listed as Mus musculus) [NmU23, NMUR1 agonist neuropeptide, Phoenix pharmaceuticals]","ILC2 proliferation as measured by Ki67, in vitro",increased ILC2 proliferation
